pIC50: −log10 of the molar value. The source made the active and inactive calls.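 The calls were made as follows: active = maximal percent inhibition of the deubiquitinase OTUD3 of at least 30% across the tested doses; inactive = the rest.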
These compounds were tested against OTU domain-containing protein 3 (Homo sapiens) (UniProt Q5T2D3) (assay: Validation of screening hits, potency titration, in vitro enzymatic, OTU domain-containing protein 3 DUB inhibitors (AID 1645868)). Conditions: purified OTUD3, ubiquitin-rhodamine cleavage fluorescence, 2 h.
Chain of OTU domain-containing protein 3 (Homo sapiens) (Q5T2D3 whole entry, looked up, the tested form may be a part): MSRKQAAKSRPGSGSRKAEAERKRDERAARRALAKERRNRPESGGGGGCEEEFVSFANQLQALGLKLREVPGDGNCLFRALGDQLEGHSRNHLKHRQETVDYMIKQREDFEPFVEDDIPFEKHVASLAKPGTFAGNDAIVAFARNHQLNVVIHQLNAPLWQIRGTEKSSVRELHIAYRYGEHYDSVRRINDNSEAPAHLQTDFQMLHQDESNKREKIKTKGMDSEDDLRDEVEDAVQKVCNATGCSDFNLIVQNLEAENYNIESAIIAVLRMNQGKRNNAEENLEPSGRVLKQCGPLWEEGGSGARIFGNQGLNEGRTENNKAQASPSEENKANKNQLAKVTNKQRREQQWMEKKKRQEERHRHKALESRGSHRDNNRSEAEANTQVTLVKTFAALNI

| SMILES | pIC50 | IC50 |
| --- | --- | --- |
| O=C(NCc1ccccc1Cl)c1ccc(-c2nnc(-c3ccccc3)o2)cc1 | 5.25 | – |
| O=C(Nc1ccc(Cl)cc1F)c1cc(-c2ccccn2)n[nH]1 | – | > 50 µM (inactive) |
| CC(C(=O)NCc1ccc(F)cc1)n1cccc1C(=O)c1ccccc1 (stereo not drawn) | – | > 50 µM (inactive) |
| Cc1ccc(C)c(-c2cc3c(=O)n(Cc4noc(CN5CCCCC5)n4)ccn3n2)c1 | – | > 50 µM (inactive) |
| COc1ccccc1S(=O)(=O)N1CC[C@@H]2CN(C)[C@@H]2C1 | – | > 50 µM (inactive) |
| Cc1ccccc1NC(=O)c1cc(S(=O)(=O)N2CCCCCC2)ccc1Cl | 4.53 | – |
| Cc1ccc(-n2nc(C(=O)Nc3ccc(C)cn3)c3ncn(C)c(=O)c32)cc1 | 5.68 | – |
| CCn1c(=O)c(=O)[nH]c2cc(C(=O)Nc3cccc(-c4csc(C)n4)c3)ccc21 | – | > 50 µM (inactive) |
| Cc1cccc(NC(=O)c2ccn(COc3ccc(F)cc3F)n2)c1C | – | > 50 µM (inactive) |
| COc1ccccc1-n1nnc(C(=O)Nc2ccc(Oc3ccccc3)cc2)c1C | – | > 50 µM (inactive) |
| Cc1nn(-c2ccccc2)c(C)c1C(=O)OCC(=O)Nc1cccc(C#N)c1 | – | > 50 µM (inactive) |
| COc1ccc(C(C(=O)NCc2ccccc2)N(C(=O)CCN2CCc3ccccc32)c2ccc(C)c(C)c2)cc1 (stereo not drawn) | – | > 50 µM (inactive) |
| Cc1ccc(-c2nc(-c3cccs3)cc(C(F)(F)F)c2C#N)cc1 | – | > 50 µM (inactive) |
| Cc1ccc(C)c(NC(=O)CSc2nnc(-c3ccccn3)n2Cc2ccco2)c1 | – | > 50 µM (inactive) |
| O=C(Nc1nnc2n1CCCS2)c1cccc(Cl)c1 | – | > 50 µM (inactive) |
| Cc1nn(-c2ccc(F)cc2)cc1-c1noc(C(=O)NCc2ccccn2)n1 | 4.60 | – |
| COc1cccc2cc(C(=O)Nc3ccc4c(c3)OCCO4)oc12 | – | > 50 µM (inactive) |
| CCCc1nc2sc3c(NC4CCCCC4)ncnc3c2c2c1CCC2 | – | > 50 µM (inactive) |
| CCN(CC)C(=O)c1sc(NC(=O)/C=C/c2c(F)cccc2Cl)c(C#N)c1C | – | > 50 µM (inactive) |
| Cc1sc(-c2cccnc2)nc1OC(=O)c1ccc(Cl)c(Cl)c1 | – | > 50 µM (inactive) |
| COC1=CC(=O)c2c(O)c3c(c(C)c2C1=O)C[C@@]1(O)[C@H](O[C@H]2CC[C@H](O[C@H]4C[C@@](C)(O)[C@H](OC(=O)c5c(C)ccc(C)c5O)[C@H](C)O4)[C@@H](C)O2)C(=O)C(C(C)=O)=C(O)[C@@]1(O)C3=O | 5.58 | – |
| CCn1cc2c(n1)c(=O)n(Cc1ccccc1)c(=O)n2CC(=O)Nc1ccc(OC)cc1 | 4.92 | – |
| O=C(CCCn1c(=O)[nH]c2cc(Cl)ccc2c1=O)N1CCc2ccccc2C1 | 4.54 | – |
| N#Cc1ccccc1Cn1c(=O)n(CCCCC(=O)NCc2ccco2)c(=O)c2ccccc21 | 4.36 | – |

| SMILES | pIC50 | IC50 |
| --- | --- | --- |
| COc1ccc(-n2nnc3c(SCC(=O)Nc4cc(C)on4)ncnc32)cc1 | – | > 50 µM (inactive) |
| CCOC(=O)c1sc2c(c1C)c(=O)n(Cc1ccccc1)c(=O)n2CC(N)=O | – | > 50 µM (inactive) |
| CCOc1ccccc1NC(=O)COC(=O)C(c1ccccc1)c1ccccc1 | – | > 50 µM (inactive) |
| CSc1ncc(C(=O)NC(C)c2ccccc2)c(-c2ccccc2)n1 (stereo not drawn) | 4.66 | – |
| Cc1cc(C(=O)Nc2cc(C)n(Cc3ccc(Cl)cc3)n2)no1 | – | > 50 µM (inactive) |
| COCCCNC(=O)Cn1c(=O)n(Cc2ccc(C(=O)NCc3ccccc3OC)cc2)c(=O)c2ccccc21 | – | > 50 µM (inactive) |
| Cc1c(-c2ccccc2)oc2c(C(=O)OCC(=O)Nc3ccccc3F)cccc2c1=O | – | > 50 µM (inactive) |
| CCC1OC(O)(C(C)C(O)C(C)C2OC(=O)/C(C)=C/C(C)=CC(C)C(O)C(C)C/C(C)=C/C=C/C2OC)CC(OC(=O)/C=C/C(=O)NC2=C(O)CCC2=O)C1C (stereo not drawn) | – | > 50 µM (inactive) |
| O=C(NCc1ccc(F)cc1)C1CCN(c2cnc(N3CCCCC3)nc2)CC1 | – | > 50 µM (inactive) |
| CC1=C(c2ccc(C)c(C)c2)S(=O)(=O)NC1=NCC(=O)NCCCc1ccccc1 | 4.33 | – |
| Cc1ncncc1C(=O)N1CCCC(C)(c2ncc(Cc3cccc(F)c3)o2)C1 (stereo not drawn) | – | > 50 µM (inactive) |
| COc1ccc(CNC(=O)Nc2cccc3ccccc23)cc1 | 4.86 | – |
| COc1cccc(Cn2nc3n(CC(C)C)c(=O)c4ccc(C(=O)NCC(C)C)cc4n3c2=O)c1 | 4.99 | – |
| Cc1cccc(C(=O)Nc2ccc3c(c2)nc(CSc2nccc(C)n2)n3C)c1 | – | > 50 µM (inactive) |
| Cc1ccc2c(c1)N=C(c1ccc([N+](=O)[O-])cc1)CO2 | – | > 50 µM (inactive) |
| COc1ccc(CCNC(=O)c2noc3c2CCc2sccc2-3)cc1OC | – | > 50 µM (inactive) |
| COc1ccccc1OCc1ccc(C(=O)Nc2ccc(F)cc2C)cc1 | – | > 50 µM (inactive) |
| CS(=O)(=O)NC1CCCN(C(=O)Nc2cccc3ccccc23)C1 (stereo not drawn) | – | > 50 µM (inactive) |
| Cc1ccc(NC(=O)c2ccn(COc3ccc(F)cc3)n2)nc1 | – | > 50 µM (inactive) |
| Cc1ccc(C(=O)NCC(=O)Nc2nc3ccccc3[nH]2)c(C)c1 | 4.45 | – |
| COc1ccc(CC(NC(C)=O)C(=O)NC2CCN(c3c(Cc4ccccc4)c(C)nc4ncnn34)CC2)cc1OC (stereo not drawn) | – | > 50 µM (inactive) |
| COc1ccc(NC(=O)c2nnn(-c3ccccc3C)c2C)cc1OC | – | > 50 µM (inactive) |
| Cc1ccc(-c2nc(N3CCCC(O)C3)ncc2-c2cnccn2)s1 (stereo not drawn) | – | > 50 µM (inactive) |
| O=C(Cn1cncc(C(=O)NC2CCCC2)c1=O)Nc1cccc(F)c1 | 4.41 | – |

| SMILES | pIC50 | IC50 |
| --- | --- | --- |
| Cc1ccc(-c2nc(Cn3cnc4ccccc4c3=O)cs2)cc1 | 4.72 | – |
| Cc1cc(O)c(=O)cc2c1C[C@H]1CC(C)(C)/C=C/C[C@@]3(C)Oc4cc(=O)c(O)cc(C)c4C[C@@H]3C[C@H](O)[C@]1(C)O2 | – | > 50 µM (inactive) |
| CCN1CCCC1CN(Cc1cc2cc(OC)ccc2[nH]c1=O)C(=O)NCc1ccccc1 (stereo not drawn) | – | > 50 µM (inactive) |
| COc1ccc(CNC(=O)CCc2nnc3n(Cc4ccccc4Cl)c(=O)c4ccccc4n23)cc1 | 4.88 | – |
| Cc1nc(N2CCCC2)ncc1-c1cc(=O)[nH]c(N2CCc3ccccc3C2)n1 | 4.53 | – |
| O=C(c1cccnc1)N1CCC2(CC1)CC1(CO2)Nc2ccccc2-n2cccc21 (stereo not drawn) | – | > 50 µM (inactive) |
| O=C(CCC1CCCCC1)Nc1ccccc1C(=O)N1CCOCC1 | – | > 50 µM (inactive) |
| CCCn1c(=O)n(CC(=O)c2ccccc2F)c2c(C(N)=O)nc(-c3ccco3)nc21 | – | > 50 µM (inactive) |
| O=C(COc1ncnc2ccccc12)Nc1ccc2c(c1)OC1(CCCC1)O2 | 4.33 | – |
| O=C(Nc1ccc(SCc2nnc(-c3ccccc3)o2)cc1)C1CC1 | – | > 50 µM (inactive) |
| O=C(CCc1ccccc1)N(CC1CCCO1)c1nc2ccccc2s1 (stereo not drawn) | – | > 50 µM (inactive) |
| O=C(NCc1ccc2c(c1)OCO2)c1nn(C23CC4CC(CC(C4)C2)C3)cc1[N+](=O)[O-] | – | > 50 µM (inactive) |
| COc1ccc(S(=O)(=O)N(C)Cc2cccs2)cc1OC | – | > 50 µM (inactive) |
| O=C(Nc1ccc(-c2nnc3n2CCCCC3)cc1)c1ccc2c(c1)OCO2 | – | > 50 µM (inactive) |
| CCn1c(=N)n(CCOc2ccc(F)cc2)c2ccccc21 | – | > 50 µM (inactive) |
| CCOc1ccc(NC(=O)c2nc3c(=O)[nH]c4cc(C)ccc4n3n2)cc1 | – | > 50 µM (inactive) |
| COC(=O)[C@]1(O)O[C@@]2(C(=O)OC)c3c(oc4cc(C)cc(O)c4c3=O)[C@H]3c4c(oc5cc(C)cc(O)c5c4=O)C[C@H]1[C@H]32 | – | > 50 µM (inactive) |
| CN(Cc1ccccc1)S(=O)(=O)c1ccc(S(=O)(=O)N2CCN(C(=O)c3cccnc3)CC2)cc1 | – | > 50 µM (inactive) |
| CC1=CN2C(=N)/C(=C/c3cn(Cc4ccc(Cl)cc4)c4ccccc34)C(=O)N=C2S1 | – | > 50 µM (inactive) |
| Cc1ccc(C(=O)Nc2ccc3nccnc3c2)cc1 | – | > 50 µM (inactive) |
| COc1ccc(C(=O)CSc2nnc(-c3cccnc3)n2-c2ccccc2)cc1 | – | > 50 µM (inactive) |
| O=C(CNC(=O)OCc1ccccc1)Nc1ccc(Br)cc1C(=O)c1ccccc1Cl | 4.87 | – |
| COc1ccc(CCNC(=O)[C@H](CCSC)NC(=O)N2CCn3c2nc2ccccc23)cc1OC | – | > 50 µM (inactive) |
| N#Cc1cc(C(=O)c2ccc(Cl)cc2)c[nH]1 | – | > 50 µM (inactive) |

| SMILES | pIC50 | IC50 |
| --- | --- | --- |
| Cc1cc(NC(=O)c2cc(-c3cccnc3)n[nH]2)ccc1Br | 4.92 | – |
| Clc1cccc(N2CCN(c3ncnc4nc[nH]c34)CC2)c1 | – | > 50 µM (inactive) |
| COc1ccc(OC)c(NC(=O)C2Oc3ccccc3NC2=O)c1 (stereo not drawn) | – | > 50 µM (inactive) |
| COc1ccc(C(=O)Nc2cc(-c3ccccn3)no2)cn1 | – | > 50 µM (inactive) |
| CCOC(=O)c1ccc(S(=O)(=O)N2CCC(C(=O)OC(C)C(=O)Nc3cccc([N+](=O)[O-])c3)CC2)cc1 (stereo not drawn) | 4.76 | – |
| COc1cc(NC(=O)Cn2nc(-c3ccc(F)cc3)ccc2=O)ccc1-n1cnnn1 | 5.25 | – |
| Cc1c(-c2nnc(-c3ccccn3)o2)nnn1-c1cccc(Cl)c1 | 4.31 | – |
| Cc1cc(-c2ccnc3c(C#N)cnn23)c(C)s1 | – | > 50 µM (inactive) |
| Fc1cc(F)c2[nH]cc(-c3nnnn3-c3ccc4ccccc4c3)c2c1 | 4.49 | – |
| COc1ccc(N2CCN(Cc3nnnn3Cc3ccc4c(c3)OCO4)CC2)cc1 | – | > 50 µM (inactive) |
| O=C(Nc1ccc2c(c1)N(C(=O)C1CCCC1)CC2)c1c(F)cccc1F | – | > 50 µM (inactive) |
| Oc1ccc(-c2nc3ccc(Cl)cn3c2NC2CCCCC2)cc1 | 4.53 | – |
| O=C(Cn1nnc(-c2ccc(F)cc2)n1)NCCc1ccccc1 | – | > 50 µM (inactive) |
| Cc1cccc(COc2ccc(C3SCC(=O)Nc4n[nH]c(C)c43)cc2)c1 (stereo not drawn) | 4.81 | – |
| CCCC[C@@H](C)/C=C(C)/C=C(\C)C(=O)NC1=C[C@](O)(/C=C/C=C/C=C/C(=O)NC2=C(O)CCC2=O)[C@@H]2O[C@@H]2C1=O | 5.48 | – |
| Cc1ccc2[nH]c(=O)c(CN(CC3COCCO3)S(=O)(=O)c3ccc(F)cc3)cc2c1 (stereo not drawn) | 4.72 | – |
| O=C(Nc1ccc2c(c1)OCO2)c1[nH]nc2c1CCc1ccccc1-2 | – | > 50 µM (inactive) |
| O=C(Cn1c(=O)n(CCCC(=O)N2CC=C(c3ccccc3)CC2)c(=O)c2ccccc21)NCCC1=CCCCC1 | – | > 50 µM (inactive) |
| c1ccc(-n2nnc(-c3noc(-c4ccccn4)n3)c2-c2ccncc2)cc1 | 4.41 | – |
| CS(=O)(=O)N1CCCc2cc(C(=O)Nc3ccc4c(c3)OCO4)ccc21 | – | > 50 µM (inactive) |
| Cc1ccccc1Cn1ccc2ccn(Cc3cccnc3)c2c1=O | – | > 50 µM (inactive) |

Reference: PubChem BioAssay AID1645868 (Buhrlage Lab, Dana-Farber Cancer Institute and Novartis …, 2021)
